We go through ten compounds from patent publication US20230286948A1 (HUYABIO International, LLC, priority 2022, published 2023).

For this assay, the target named is MLL1-WDR5 protein-protein interaction (Homo sapiens (Human), UniProt P61964). The experiment in a line: WDR5 TR-FRET assay (MLL1-WDR5 PPI inhibition). The following applies: 5 nM WDR5 protein, 10 nM peptide, read-out: IC50 (nM), MLL1-WDR5 PPI inhibitory activity. It is filed as binding. As for the experimental part: WDR5 TR-FRET Assay Procedure: Stock compounds were transferred to the assay plate by Echo Liquid Handler. […] Stock compounds were incubated with WDR5 protein for 30 min at room temperature. Plates were covered, protected from light and incubated for 60 min at room temperature, after adding the peptide and Tb-Ab. EnVision Multimode Plate Reader (PerkinElmer) was used for the TR-FRET assay with excitation wavelength at 340 nm and emission wavelength at 495 and 520 nm. The ratio of the 520/495 wavelengths were used to assess the degree of the FRET signal. IC50 was calculated by fitting the inhibition data using XLfit software to sigmoidal dose-response model.
(In general: In TR-FRET formats the signal depends on donor and acceptor labels being close together.)
With `COc1nc(SC)ncc1C(=O)Nc1cc(-n2cc(C(=O)NCCCN3CCOCC3)nn2)ccc1N1CCN(C)CC1` [Example 30, 4-methoxy-N-(2-(4-methylpiperazin-1-yl)-5-(4-((3-morpholinopropyl)carbamoyl)-1H-1,2,3-triazol-1-yl)phenyl)-2-(methylthio)pyrimidine-5-carboxamide], the 50% inhibitory concentration (IC50) (as a rule, the concentration that gives 50% inhibition) was greater than 10000 nM.

In the case of `CN1CCN(c2ccc(-n3cc(C(=O)NCCCN4CCOCC4)nn3)cc2NC(=O)c2cnc(C(F)(F)F)cc2Cl)CC1` [Example 20, 4-chloro-N-(2-(4-methylpiperazin-1-yl)-5-(4-((3-morpholinopropyl)carbamoyl)-1H-1,2,3-triazol-1-yl)phenyl)-6-(trifluoromethyl)nicotinamide], the concentration for half-maximal inhibition (IC50) is greater than 10000 nM. For `CN1CCN(c2ccc(-n3cc(C(=O)NCCCN4CCOCC4)nn3)cc2NC(=O)c2cnc([S+](C)[O-])nc2C(F)(F)F)CC1` (stereo not shown) [Example 28, N-(2-(4-methylpiperazin-1-yl)-5-(4-((3-morpholinopropyl)carbamoyl)-1H-1,2,3-triazol-1-yl)phenyl)-2-(methylsulfinyl)-4-(trifluoromethyl)pyrimidine-5-carboxamide], the IC50 is greater than 10000 nM. The figure for `Cc1cc(C(F)(F)F)c(C(=O)Nc2cc(-n3cc(C(=O)NCCCN4CCOCC4)nn3)ccc2N2CCN(C)CC2)cn1` [Example 12, 6-methyl-N-(2-(4-methylpiperazin-1-yl)-5-(4-((3-morpholinopropyl)carbamoyl)-1H-1,2,3-triazol-1-yl)phenyl)-4-(trifluoromethyl)nicotinamide] is greater than 10000 nM. With `CN1CCN(c2ccc(-n3cc(C(=O)NCCCN4CCOCC4)nn3)cc2NC(=O)c2cnc(Cl)cc2Cl)CC1` [Example 19, 4,6-dichloro-N-[2-(4-methylpiperazin-1-yl)-5-[4-(3-morpholinopropylcarbamoyl)triazol-1-yl]phenyl]pyridine-3-carboxamide], the half-inhibitory concentration (IC50) is greater than 10000 nM. As to `CN1CCN(c2ccc(-n3cc(C(=O)NCCCN4CCOCC4)nn3)cc2NC(=O)c2ncc(Cl)nc2Cl)CC1` [Example 34, 3,5-dichloro-N-[2-(4-methylpiperazin-1-yl)-5-[4-(3-morpholinopropylcarbamoyl)triazol-1-yl]phenyl]pyrazine-2-carboxamide], the concentration for half-maximal inhibition (IC50) is greater than 10000 nM. Next, `CCOc1cc(C(F)(F)F)c(C(=O)Nc2cc(-n3cc(C(=O)NCCCN4CCOCC4)nn3)ccc2N2CCN(C)CC2)cn1` [Example 17, 6-ethoxy-N-(2-(4-methylpiperazin-1-yl)-5-(4-((3-morpholinopropyl)carbamoyl)-1H-1,2,3-triazol-1-yl)phenyl)-4-(trifluoromethyl)nicotinamide]: greater than 10000 nM.

In the case of `C[C@H]1CN(c2ccc(-n3cc(C(=O)NCCCN4CCOCC4)nn3)cc2NC(=O)c2c[nH]c(=O)cc2C(F)(F)F)CCN1C` [Example 10, (S)-N-(2-(3,4-dimethylpiperazin-1-yl)-5-(4-((3-morpholinopropyl)carbamoyl)-1H-1,2,3-triazol-1-yl)phenyl)-6-oxo-4-(trifluoromethyl)-1,6-dihydropyridine-3-carboxamide], the IC50 stood at 9.12 nM. Next, `Cc1c(Cl)ncc(C(=O)Nc2cc(-n3cc(C(=O)NCCCN4CCOCC4)nn3)ccc2N2CCN(C)CC2)c1Cl` [Example 21, 4,6-dichloro-5-methyl-N-(2-(4-methylpiperazin-1-yl)-5-(4-((3-morpholinopropyl)carbamoyl)-1H-1,2,3-triazol-1-yl)phenyl)nicotinamide]: 6570 nM; `Cc1cc(F)ncc1C(=O)Nc1cc(-n2cc(C(=O)NCCCN3CCOCC3)nn2)ccc1N1CCN(C)CC1` [Example 25, 6-fluoro-4-methyl-N-(2-(4-methylpiperazin-1-yl)-5-(4-((3-morpholinopropyl)carbamoyl)-1H-1,2,3-triazol-1-yl)phenyl)nicotinamide]: greater than 10000 nM.
